From the supplement of paper PMC4862054

Tests used:
MCF-10A [1] = details: 72 h
Protocol: (§1)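 Drug sensitivity and resistance testing (DSRT) of breast cancer cell lines in 384-well plates, 5 concentrations in 10-fold dilutions over a compound-specific 10,000-fold range. After 72 h, cytotoxicity was read by CellTox Green fluorescence and viability by CellTiter-Glo luminescence (multiplexed), normalised to DMSO and benzethonium chloride controls. EC50 is the inflection point of the fitted dose-response curve (bottom asymptote free, so it can be relative for partial curves) and is censored at the highest tested concentration. Rows with DSS 0 (no meaningful response) were excluded.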

CAL-85-1 [2] = details: 72 h
Method in brief: (§2)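 To measure viability, fluorescence at 560/590 nm was read after 2.5 µl CellTiter-Blue had been added for 2 h at 37 °C. Cells from breast cancer lines had been seeded in 20 µl suspension onto 384-well plates pre-loaded with compound dissolved in 5 µl medium and kept for 72 h. EC50 comes from a fitted percent-inhibition dose-response curve censored at the highest concentration, after per-plate normalisation to vehicle and a positive kill control, Z'-factor checks, and removal of rows with zero drug sensitivity score.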

MDA-MB-453 [3] = details: 72 h
Method in brief: as §2

BT-474 = details: 72 h
Method in brief: as §2

CAL-85-1 [4] = details: 72 h; remark: listed apart in the source
Method in brief: (§3)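 A 20 µl suspension of breast cancer cells was placed in 384-well plates that already contained compound at 5 concentrations in 10-fold steps across a compound-specific 10,000-fold range, and the plates were left for 72 h. CellTox Green fluorescence at 485/520 nm gave cell death, and CellTiter-Glo luminescence, read after 10 min at room temperature, gave viability. Each plate was normalised to 0.1 % DMSO and a positive kill control. EC50 was fitted from the curves and censored at the top concentration.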

MCF-10A [5] = details: 72 h; remark: listed apart in the source
Method in brief: as §3

HDQ-P1 [6] = details: 72 h
Method in brief: as §3

SK-BR-3 = details: 72 h
Method in brief: as §3

CAL-85-1 [7] = assay: normalised viability (% of control), CellTiter-Blue; higher = more viable cells (about 100 = DMSO control); details: incubation time: 72 h
Method in brief: (§4)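 Each entry is normalised viability at a single listed concentration within a series. It comes from breast cancer cell lines incubated 72 h with compound in 384-well plates, then measured with CellTiter-Blue fluorescence at 560/590 nm. Every plate was normalised between vehicle (100) and a positive kill control (0).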

CAL-148 [8] = assay: as above; details: incubation time: 72 h
Method in brief: as §4

HDQ-P1 [9] = assay: as above; details: incubation time: 72 h
Method in brief: as §4

DU-4475 = assay: as above; details: incubation time: 72 h
Method in brief: as §4

MDA-MB-453 [10] = assay: as above; details: incubation time: 72 h
Method in brief: as §4

CAL-51 [11] = assay: as above; details: incubation time: 72 h
Method in brief: as §4

CAL-51 [12] = details: 72 h
Method in brief: as §3

CAL-85-1 [13] = details: 72 h; remark: listed apart in the source
Protocol: as §1

CAL-148 [14] = details: 72 h
Protocol: as §1

MDA-MB-468 [15] = details: 72 h
Protocol: as §1

CAL-148 [16] = details: 72 h; remark: listed apart in the source
Method in brief: as §3

CAL-120 = details: 72 h
Method in brief: as §3

MFM-223 = details: 72 h
Method in brief: as §3

MDA-MB-468 [17] = details: 72 h; remark: listed apart in the source
Method in brief: as §3

MDA-MB-453 [18] = details: 72 h; remark: listed apart in the source
Method in brief: as §3

SMILES	normalised viability (CAL-85-1 [7]) [%]	normalised viability (CAL-148 [8]) [%]	normalised viability (HDQ-P1 [9]) [%]	normalised viability (DU-4475) [%]	normalised viability (MDA-MB-453 [10]) [%]	normalised viability (CAL-51 [11]) [%]	other results
CS(=O)(=O)CCNCc1ccc(-c2ccc3ncnc(Nc4ccc(OCc5cccc(F)c5)c(Cl)c4)c3c2)o1 [Lapatinib]	–	–	–	–	–	–	EC50, CellTox Green (MCF-10A [1]): 678 nM; EC50, CellTiter-Blue viability (CAL-85-1 [2]): 3740 nM; EC50, CellTiter-Blue viability (MDA-MB-453 [3]): 75.1 nM; EC50, CellTiter-Blue viability (BT-474): 137 nM; EC50, CellTiter-Glo (CAL-85-1 [4]): 304 nM; EC50, CellTiter-Glo (MCF-10A [5]): 504 nM; EC50, CellTiter-Glo (HDQ-P1 [6]): 359 nM; EC50, CellTiter-Glo (SK-BR-3): 49.8 nM
COC1=CC(c2cc3ccccc3[nH]2)=N/C1=C\c1[nH]c(C)cc1C [Obatoclax] (10000 nM)	22.1	10.8	35.5	30	18.6	6.23	–
CCS(=O)(=O)c1cccc(-c2cc(C(=O)NC3CCN(C)CC3)c(C)c3[nH]c4ncc(C)cc4c23)c1 [TAK-901] (1000 nM)	30.9	105	16.6	41.2	40.2	23.8	–
C[C@@H]1CCN(C(=O)CC#N)C[C@@H]1N(C)c1ncnc2[nH]ccc12 [Tofacitinib]	–	–	–	–	–	–	EC50, CellTiter-Glo (CAL-51 [12]): 52.1 nM
CCOc1cc2ncc(C#N)c(Nc3ccc(OCc4ccccn4)c(Cl)c3)c2cc1NC(=O)/C=C/CN(C)C [Neratinib] (1000 nM)	101	79.5	116	105	75.8	92.5	–
CCOc1cc2ncc(C#N)c(Nc3ccc(OCc4ccccn4)c(Cl)c3)c2cc1NC(=O)/C=C/CN(C)C [Neratinib]	–	–	–	–	–	–	EC50, CellTox Green (CAL-85-1 [13]): 211 nM; EC50, CellTox Green (CAL-148 [14]): 791 nM; EC50, CellTox Green (MDA-MB-468 [15]): 149 nM; EC50, CellTiter-Blue viability (MDA-MB-453 [3]): 12.5 nM; EC50, CellTiter-Glo (CAL-85-1 [4]): 91.2 nM; EC50, CellTiter-Glo (MCF-10A [5]): 57.8 nM; EC50, CellTiter-Glo (CAL-148 [16]): 95.2 nM; EC50, CellTiter-Glo (CAL-120): 412 nM; EC50, CellTiter-Glo (HDQ-P1 [6]): 309 nM; EC50, CellTiter-Glo (MFM-223): 692 nM; EC50, CellTiter-Glo (SK-BR-3): 2.49 nM; EC50, CellTiter-Glo (MDA-MB-468 [17]): 539 nM; EC50, CellTiter-Glo (MDA-MB-453 [18]): 7.56 nM; EC50, CellTiter-Glo (CAL-51 [12]): 926 nM
C[C@@H]1C=C2C(=O)O[C@@H]3CC[C@H](C1)[C@]23O [Galiellalactone] (50000 nM)	9.47	22.4	41.7	77.4	9.52	43.1	–
CC(C)(C)c1cc(NC(=O)Nc2ccc(-c3cn4c(n3)sc3cc(OCCN5CCOCC5)ccc34)cc2)no1 [Quizartinib] (1000 nM)	89.6	91.3	111	112	60.2	103	–
